Test systems include A549 NSCLC; BT-549 breast; CAKI-1 renal; EKVX NSCLC; HCT-116 colon; HOP-92 NSCLC; HT29 colon; LOX IMVI melanoma; M14 melanoma; NCI-H23 lung; NCI-H522 lung; RPMI-8226 leukemia; RXF 393 renal; SNB-19 CNS; T-47D breast; UO-31 renal.
Test in all cases: growth of human tumour cells (NCI), 48 h

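Assay format: 96-well plates, 48-hour exposure. The concentration for full growth arrest is given as TGI.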 Where a SMILES comes first, the peptide text is derived from it. The star is where a group is joined. Boc = CC(C)(C)OC(=O)*; Bn = c1ccc(C*)cc1

For the compound `N#CCCN(CCCN(C(=O)Nc1ccc(NC(=O)N(CCCN(CCC#N)C(N)=O)c2ccccc2)cc1)c1ccccc1)C(N)=O`, the TGI in the experiment on A549 NSCLC, in the experiment with BT-549 breast, with CAKI-1 renal, in the experiment with EKVX NSCLC, in the experiment on HCT-116 colon and in the experiment on HOP-92 NSCLC was above 100 µM in each case. For the same compound, the TGI with HT29 colon, in the experiment on LOX IMVI melanoma, in the experiment on M14 melanoma, in the experiment with NCI-H23 lung, in the experiment on NCI-H522 lung and in the experiment with RPMI-8226 leukemia was above 100 µM each time. Besides, the TGI in the experiment with RXF 393 renal, with SNB-19 CNS, in the experiment with T-47D breast and in the experiment on UO-31 renal was above 100 µM in each case.

Take `CC(C)(C)CN1[C@@H]2CCCC[C@H]2N(CC(C)(C)C)P1(=O)C(O)/C=C/c1ccccc1` (stereo partly drawn): the TGI in the experiment with A549 NSCLC is above 100 µM; in the experiment with BT-549 breast, above 100 µM; in the experiment on CAKI-1 renal, above 100 µM; with EKVX NSCLC, above 100 µM; in the experiment with HCT-116 colon it was above 100 µM; with HOP-92 NSCLC it was 67 µM. The TGI in the experiment with HT29 colon was above 100 µM; in the experiment with LOX IMVI melanoma, 37.3 µM; in the experiment on M14 melanoma, above 100 µM; with NCI-H23 lung it was above 100 µM; with NCI-H522 lung it was above 100 µM; in the experiment with RPMI-8226 leukemia, 56.1 µM. Moreover, the TGI with RXF 393 renal, in the experiment on SNB-19 CNS, in the experiment with T-47D breast and in the experiment with UO-31 renal was above 100 µM in each case.

Regarding `CN(C)c1cccc(/C=C(\C#N)c2ccccc2)c1`, the TGI with A549 NSCLC was above 79.9 µM; in the experiment with BT-549 breast, above 100 µM; in the experiment on CAKI-1 renal, above 100 µM; with EKVX NSCLC, above 100 µM; with HCT-116 colon, 57.5 µM; in the experiment on HOP-92 NSCLC it was 39.1 µM. The TGI in the experiment on HT29 colon was 2.57 µM; with LOX IMVI melanoma, above 59.5 µM; with M14 melanoma, above 47.2 µM; in the experiment on NCI-H23 lung, 45 µM; in the experiment on NCI-H522 lung it was 5.75 µM; in the experiment on RPMI-8226 leukemia, above 42.8 µM. The TGI in the experiment with RXF 393 renal is 4.51 µM; in the experiment with SNB-19 CNS it was above 53.8 µM; in the experiment with T-47D breast, 86.5 µM; with UO-31 renal, above 100 µM.

Turning to `COC(=O)C1Cc2c([nH]c3ccccc23)-c2[nH]c3ccccc3c2CC(NC(C)=O)C(=O)NCC(=O)NCC(=O)N1` (stereo not drawn), the TGI in the experiment with A549 NSCLC, in the experiment on BT-549 breast, with CAKI-1 renal, in the experiment with EKVX NSCLC, in the experiment on HCT-116 colon and with HOP-92 NSCLC was above 100 µM in each case. Also, the TGI with HT29 colon, in the experiment with LOX IMVI melanoma, in the experiment with M14 melanoma, with NCI-H23 lung, in the experiment with NCI-H522 lung and in the experiment with RPMI-8226 leukemia was above 100 µM each time. For the same compound, the TGI in the experiment on RXF 393 renal, in the experiment on SNB-19 CNS, in the experiment on T-47D breast and with UO-31 renal was above 100 µM throughout.

As to `COc1ccc2cc(/C=N\NC(=O)Nc3ccc([N+](=O)[O-])cc3)ccc2c1`, the TGI in the experiment on A549 NSCLC was 18.5 µM; in the experiment with BT-549 breast, 18.6 µM; in the experiment on CAKI-1 renal, 18.5 µM; in the experiment on EKVX NSCLC, 25 µM; in the experiment on HCT-116 colon it was 16.3 µM; with HOP-92 NSCLC it was 32.4 µM. Also, the TGI was 16.1 µM in the experiment with HT29 colon; 17.6 µM in the experiment with LOX IMVI melanoma; above 71.4 µM in the experiment on M14 melanoma; 16.6 µM with NCI-H23 lung; 26.4 µM in the experiment on NCI-H522 lung; 29.1 µM in the experiment on RPMI-8226 leukemia. Besides, the TGI was determined as 16.6 µM with RXF 393 renal, 20.1 µM with SNB-19 CNS, 19.5 µM with T-47D breast and 18.8 µM with UO-31 renal.

With `O=C(/N=C1/OC(CN2CCOCC2)CN1C(=O)Nc1ccccc1)Nc1ccccc1` (stereo not drawn), the TGI with A549 NSCLC, in the experiment with BT-549 breast, in the experiment with CAKI-1 renal, with EKVX NSCLC, in the experiment with HCT-116 colon and in the experiment with HOP-92 NSCLC was above 100 µM each time. Moreover, the TGI in the experiment on HT29 colon, in the experiment with LOX IMVI melanoma, in the experiment on M14 melanoma, in the experiment on NCI-H23 lung, in the experiment on NCI-H522 lung and in the experiment on RPMI-8226 leukemia was above 100 µM throughout. The TGI in the experiment on RXF 393 renal, with SNB-19 CNS, with T-47D breast and in the experiment on UO-31 renal was above 100 µM in each case.

Take `COC(=O)/C=C/C(=O)Nc1cc(Cl)c(Cl)cc1CC(=O)N(C)[C@H]1CCCC[C@@H]1N1CCCC1`: the TGI in the experiment with A549 NSCLC is above 54.2 µM; in the experiment on BT-549 breast it was 26.8 µM; in the experiment with CAKI-1 renal it was 38.2 µM; in the experiment with EKVX NSCLC, 29.2 µM; with HCT-116 colon, 23.3 µM; in the experiment on HOP-92 NSCLC it was 18.7 µM. The TGI stood at 41 µM with HT29 colon; 24.4 µM with LOX IMVI melanoma; 32.3 µM with M14 melanoma; 30.4 µM in the experiment on NCI-H23 lung; 7.89 µM in the experiment on NCI-H522 lung; 19.2 µM with RPMI-8226 leukemia. The TGI in the experiment on RXF 393 renal turned out to be 17.7 µM; in the experiment on SNB-19 CNS it was 37.7 µM; with T-47D breast it was 28.5 µM; in the experiment with UO-31 renal, 21.3 µM.

With `COC(=O)C(CC(C)C)NC(=O)CNC(=O)C(Cc1ccc(OCc2ccccc2)cc1)NC(=O)C(COCc1ccccc1)NC(=O)OC(C)(C)C` (stereo not drawn) (Boc-S(Bn)Y(Bn)GL-OMe; configuration not given here), the TGI in the experiment with A549 NSCLC, in the experiment on BT-549 breast, in the experiment on CAKI-1 renal, in the experiment on EKVX NSCLC, in the experiment on HCT-116 colon and in the experiment with HOP-92 NSCLC was above 100 µM in each case. In addition, the TGI in the experiment with HT29 colon, in the experiment on LOX IMVI melanoma, with M14 melanoma, in the experiment on NCI-H23 lung, in the experiment with NCI-H522 lung and in the experiment with RPMI-8226 leukemia was above 100 µM in each case. In addition, the TGI with RXF 393 renal, with SNB-19 CNS, in the experiment on T-47D breast and in the experiment with UO-31 renal was above 100 µM each time.

(Values after PubChem BioAssay (NCI).)
